Literature values in US4794170A (priority 1984, dated 1988).

What was measured:
[1] = system: virus B; conditions: chronical hepatitis induced by virus B
[2] = system: hepatocytes; conditions: mouse

| Compound | virus replication [1] | hepatic targeting of ara-A [2] |
| --- | --- | --- |
| Nc1ncnc2c1ncn2[C@@H]1O[C@H](COP(=O)(O)O)[C@@H](O)[C@@H]1O [ara-AMP, adenine-9-beta-D-arabinofuranoside 5'monophosphate] | inhibit the virus replication |  |
| Nc1ncnc2c1ncn2[C@@H]1O[C@H](CO)[C@@H](O)[C@@H]1O [ara-A, adenine-9-beta-D-arabinoside] | inhibit the virus replication |  |
| ara-A-glut-AF: ara-A glutarate bonded to the asialofetuine (AF) through its hydroxysuccinimidic ester |  | pharmacologically active in producing in the mouse a hepatic targeting of ara-A |
